Experimental data reported in PubChem BioAssay AID1918995 (Molecular Pharmacology Branch, DTP, NCI, 2023).
Where “and” joins values, the source holds several entries; their conditions need not be identical. Identical values can stand only once.

Tested on: 324938-238-R-J1-PDC complex spheroid growth, % test/control
Assay: Anticancer human tumor 324938-238-R-J1-PDC patient-derived bladder carcinoma cell line growth inhibition [AhR]
Settings: for viability, T/C: stronger effect = lower value
From the text: Multicellular complex tumor spheroid response to aryl hydrocarbon receptor antagonists in combination with a variety of drugs and investigational agents in selected tumor cell lines
The current study was undertaken to assess response to aryl hydrocarbon receptor antagonists in combination with standard-of-care drugs and investigational agents in solid tumor complex spheroid models. Complex spheroids include a stromal component modeled by human endothelial cells (HUVEC) and fibroblasts modeled by human mesenchymal stem cells (MSCs). The concentration ranges selected for each drug and investigational agent were based upon clinically achievable concentrations if the clinical Cmax of the agent was known.
Compounds. The drugs and investigational agents: BAY 2416964 (NSC825713), GNF351 (NSC835774), CH-223191 (NSC835775), CPI-455 (NSC825282), aza-TdCyd (NSC777586), decitabine (NSC127716), belinostat (NSC758774), entinostat (NSC756642), pevonedistat (NSC761192), tazemetostat (NSC777109), talazoparib (NSC765396), olaparib (NSC753686), selinexor (NSC780203), nedisertib (M3814, NSC802822), bortezomib (NSC756655), venetoclax (NSC766270), doxorubicin (NSC123127), elimusertib (BAY189344, NSC800525), ceralasertib (AZD6738, NSC777638), TAK-243 (NSC785004), alisertib (NSC759677), etoposide (NSC141540), topotecan (NSC609699), eribulin (NSC707389), gemcitabine (NSC613327), carboplatin (NSC241240), cisplatin (NSC119875), and SN-38 (NSC673596) were obtained from the National Cancer Institute (NCI) Developmental Therapeutics Program Chemical Repository (32). The FDA-approved anticancer drug set is available from the Developmental Therapeutics Program at https://dtp.cancer.gov/organization/dscb/obtaining/available plates.htm. […] The stock solutions were prepared in dimethyl sulfoxide (DMSO, Sigma-Aldrich, St. Louis, MO, cat. D2650), except for the platinum compounds which were prepared in saline (Quality Biological, Gaithersburg, MD, cat. 114-055-101), at 800-fold the tested concentration and stored at -70 degrees C prior to their use. All drugs and investigational agents were tested over a range starting from a high concentration at or near the clinical Cmax and decreasing in half-log increments. If the clinical Cmax for an agent had not been determined, the highest concentration tested was 10 microM (Table 1).
Cell Culture. All cells were maintained in an incubator at 37 degrees C and 5% CO2 with 95% humidity. The PDC lines were cultured according to standard operating procedures established by the NCI PDMR (https://pdmr.cancer.gov). Briefly, all PDCs were thawed and cultured in Matrigel-coated flasks prepared with a working solution of 1X Ham's F-12 nutrient mix, without supplementation (Invitrogen, Waltham, MA, cat. 11765054), 100 U/mL penicillin-streptomycin (Invitrogen, cat. 15140122), and 2.5% Matrigel (Corning Inc., Corning, NY, cat. 354248) for the first three passages. All PDCs were cultured in complete DMEM/F-12 media containing advanced DMEM/F-12 (Invitrogen, cat. 12634028), 4.9% defined fetal bovine serum, heat inactivated (HyClone Laboratories Inc., Logan, UT, cat. SH30070.03HI), 389 ng/mL hydrocortisone (Sigma-Aldrich, cat. H4001), 9.7 ng/mL human EGF recombinant protein (Invitrogen, cat. PHG0313), 23.4 microg/mL adenine (Sigma-Aldrich, cat. A2786), 97.3 U/mL penicillin-streptomycin (Invitrogen, cat. 15140122), 1.9 mM L-glutamine (Invitrogen, cat. 25030081), and 9.7 microM Y-27632 dihydrochloride (Tocris Bioscience, Bristol, United Kingdom, cat. 1254). The PDCs were cultured in complete DMEM/F12 media without 10 microM Y-27632 dihydrochloride for at least two passages prior to the screen. The established cell lines NCI-H1341 and […] were cultured in DMEM/F-12, HEPES (Invitrogen, cat. 11330032), 5% defined fetal bovine serum (HyClone Laboratories Inc., cat. SH30070.03), ITS premix universal culture supplement [insulin (5 microg/mL), transferrin (5 microg/mL), and selenious acid (5 ng/mL)] […]
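Note: spheroids exposed to agents for seven days before viability read.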

Compound | viability, T/C (compound 0.0316 µM) | viability, T/C (compound 0.1 µM) | viability, T/C (compound 0.316 µM) | viability, T/C (compound 1 µM) | viability, T/C (compound 3.16 µM) | viability, T/C (compound 10 µM) | IC50 (curve of compound) | further results
COc1ccc([C@@H](O)c2cc(-c3ncnc4cc(N5CCOCC5)ccc34)c(F)cc2Cl)nn1 | 109% (2×) and 99.4% | 115% and 112% and 109% | 59.1% and 92.5% and 94% | 82.9% and 89.8% and 84% | 59.8% and 80.3% and 73.2% | 33.9% and 66% and 60.1% | 4.38 µM and > 10 µM | –
COc1cccc2c1C(=O)c1c(O)c3c(c(O)c1C2=O)CC(O)(C(=O)CO)CC3OC1CC(N)C(O)C(C)O1 (stereo not given) | 69.2% and 39.5% and 37.4% | 86% and 31.1% and 26.5% | 53.9% and 16.3% and 19.6% | 2.48% and 4.61% and 4.55% | 1.18% and 0.26% and 0.23% | 0.6% and 0.23% and 0.35% | – | –
Cc1ccccc1N=Nc1ccc(NC(=O)c2ccnn2C)c(C)c1 | – | – | – | – | – | 79.2% [middle of 20 runs] | – | IC50 (compound alone, run of 07/26/2022): > 10 µM
Cc1cncc(-c2nc(NCCc3c[nH]c4ccccc34)c3ncn(C(C)C)c3n2)c1 | – | – | – | – | – | – | – | IC50 (compound alone, run of 07/18/2022): 5.31 µM [middle of 23 runs]
Cn1ncnc1C1c2n[nH]c(=O)c3cc(F)cc(c23)NC1c1ccc(F)cc1 (stereo not given) | 98% and 79.1% and 61.1% | 89.5% and 65.1% and 46.1% | – | – | – | – | > 0.1 µM and 0.0781 µM | viability, T/C (compound 0.000316 µM): 107% and 101% and 111%; viability, T/C (compound 0.001 µM): 100% and 105% and 98%; viability, T/C (compound 0.00316 µM): 92.3% and 101% and 90.6%; viability, T/C (compound 0.01 µM): 97.1% and 74.3% and 87.5%
NS(=O)(=O)OCC1CC(n2ccc3c(NC4CCc5ccccc54)ncnc32)CC1O (stereo not given) | 120% and 104% and 97.8% | 79.3% and 98% and 80.5% | 97.1% and 99.1% and 65.3% | 64.7% and 67.5% and 40.5% | 30.8% and 30.9% and 26.9% | 25.3% and 31.1% and 29.9% | 1.86 µM and 1.75 µM and 0.616 µM | –
Nc1ccccc1NC(=O)c1ccc(CNC(=O)OCc2cccnc2)cc1 | 90% and 112% and 121% | 80.4% and 111% and 110% | 57.2% and 107% and 97.9% | 61.7% and 69% and 70.3% | 37.1% and 43.2% and 58.1% | – | 1.31 µM and 2.2 µM and 3.5 µM | –
Nc1ccn(C2OC(CO)C(O)C2(F)F)c(=O)n1 (stereo not given) | 68.2% and 32.2% and 53.2% | 98.7% and 26% and 26.2% | 79.8% and 18.3% and 16.4% | 79.5% and 19.9% and 15.4% | 87.5% and 17.6% and 11.5% | 87.3% and 11.4% and 10.1% | – | –
Nc1ncn(C2CC(O)C(CO)O2)c(=O)n1 (stereo not given) | 82.3% and 98.6% and 85.2% | 83.7% and 98.3% and 96.2% | 128% and 80.2% and 81.7% | 92.8% and 72% and 68.3% | – | – | > 1 µM | viability, T/C (compound 0.00316 µM): 69.8% and 99.6% and 102%; viability, T/C (compound 0.01 µM): 96.2% and 113% and 94.2%
Nc1ncn(C2CC(O)C(CO)S2)c(=O)n1 (stereo not given) | – | – | – | – | – | – | > 0.3 µM and 0.215 µM | viability, T/C (compound 0.000949 µM): 106% and 103% and 93.4%; viability, T/C (compound 0.003 µM): 86.6% and 105% and 95.5%; viability, T/C (compound 0.00949 µM): 86.8% and 106% and 94.1%; viability, T/C (compound 0.03 µM): 116% and 92.5% and 88.8%; viability, T/C (compound 0.0949 µM): 96.4% and 71.2% and 66.3%; viability, T/C (compound 0.3 µM): 138% and 60.1% and 43.4%
O=C(C=Cc1cccc(S(=O)(=O)Nc2ccccc2)c1)NO | 100% and 110% and 114% | 92% and 98.7% and 110% | 109% and 89.2% and 81.5% | 85.5% and 66.9% and 72.5% | 46% and 49.9% and 51.9% | – | 2.79 µM and 2.98 µM and 2.55 µM | –
O=C(C=Cn1cnc(-c2cc(C(F)(F)F)cc(C(F)(F)F)c2)n1)NNc1cnccn1 | – | – | – | – | – | – | 0.681 µM and 0.184 µM and 0.0921 µM | viability, T/C (compound 0.00949 µM): 129% and 95.9% and 85.8%; viability, T/C (compound 0.03 µM): 100% and 95.8% and 75.1%; viability, T/C (compound 0.0949 µM): 71.5% and 69.7% and 47.7%; viability, T/C (compound 0.3 µM): 58.5% and 34.4% and 27%; viability, T/C (compound 0.949 µM): 45.4% and 16.9% and 15.9%
O=C(c1cc(Cc2n[nH]c(=O)c3ccccc23)ccc1F)N1CCN(C(=O)C2CC2)CC1 | 115% and 100% and 97.8% | 73.1% and 102% and 96.9% | 66% and 103% and 82% | 86.6% and 110% and 88.1% | 69.2% and 90.5% and 77.8% | 79% and 74.1% and 47.3% | > 10 µM and 9.37 µM | –
